This is an account of results in ChEMBL document CHEMBL1151441, “Antimicrobial susceptibilities and clinical sources of Dialister species” (2007).

Structures are written as SMILES. Converted amounts (≈) assume the structure as drawn.

Format in all cases: functional
The subject of assay [1] is Dialister pneumosintes. The experiment in a line: Antimicrobial activity against Dialister pneumosintes by agar dilution method.
The subject of assay [2] is Dialister micraerophilus. The experiment in a line: Antimicrobial activity against Dialister micraerophilus by agar dilution method.
The test system of assay [3] is Dialister pneumosintes. The experiment in a line: Antimicrobial activity against Dialister pneumosintes assessed as susceptibility breakpoint by CLSI method.
Assay [4] relates to Dialister micraerophilus. Nature of the assay: Antimicrobial activity against Dialister micraerophilus assessed as susceptibility breakpoint by CLSI method.
In assay [5] the test system is Dialister pneumosintes. Nature of the assay: Antimicrobial activity against Dialister pneumosintes assessed as susceptibility breakpoint by CA-SFM method.
For assay [6], the system named is Dialister micraerophilus. Nature of the assay: Antimicrobial activity against Dialister micraerophilus assessed as susceptibility breakpoint by CA-SFM method.
The subject of assay [7] is Dialister propionicifaciens. Nature of the assay: Antimicrobial activity against Dialister propionicifaciens by agar dilution method.
Assay [8] has as its system Dialister invisus. The experiment in a line: Antimicrobial activity against Dialister invisus by agar dilution method.
The test system of assay [9] is Dialister propionicifaciens. Nature of the assay: Antimicrobial activity against Dialister propionicifaciens assessed as susceptibility breakpoint by CLSI method.
Assay [10] deals with Dialister invisus. Nature of the assay: Antimicrobial activity against Dialister invisus assessed as susceptibility breakpoint by CLSI method.
Assay [11] concerns Dialister propionicifaciens. The experiment in a line: Antimicrobial activity against Dialister propionicifaciens assessed as susceptibility breakpoint by CA-SFM method.
The test system of assay [12] is Dialister invisus. The experiment in a line: Antimicrobial activity against Dialister invisus assessed as susceptibility breakpoint by CA-SFM method.

As for `O=C(N[C@H](CO)[C@H](O)c1ccc([N+](=O)[O-])cc1)C(Cl)Cl` [CHLORAMPHENICOL], the MIC in assay [1], in assay [2], in assay [7] and in [8] was 0.25 µg/mL (≈ 0.774 µM) each time. Moreover, the MIC50 in [1] and in [2] was 0.25 µg/mL (≈ 0.774 µM) throughout. Further, the MIC90 in assay [1] is 0.5 µg/mL (≈ 1.55 µM); in [2] it was 1 µg/mL (≈ 3.09 µM). Further, the Activity result in assay [3], in assay [4], in assay [5], in [6], in assay [9] and in assay [10] was “<=8 ug ml-1” in each case. Besides, the Activity entry in assay [11] and in assay [12] was “<=8 ug ml-1” in each case.
`CCC[C@@H]1C[C@@H](C(=O)N[C@@H]([C@H]2O[C@H](SC)[C@H](O)[C@@H](O)[C@H]2O)[C@H](C)Cl)N(C)C1` [CLINDAMYCIN]: the MIC in assay [1], in [2], in assay [7] and in assay [8] was 0.125 µg/mL (≈ 0.294 µM) throughout. For the same molecule, the MIC50 in assay [1] and in assay [2] was 0.125 µg/mL (≈ 0.294 µM) each time. For the same molecule, the MIC90 in assay [1] and in [2] was 0.125 µg/mL (≈ 0.294 µM) each time. The Activity entry in assay [3], in assay [4], in [5], in assay [6], in assay [9] and in [10] was “<=2 ug ml-1” each time. Besides, the Activity entry in assay [11] and in assay [12] was “<=2 ug ml-1” in each case.
With `C[C@@H](O)[C@H]1C(=O)N2C(C(=O)O)=C(SCCNC=N)C[C@H]12` [IMIPENEM ANHYDROUS], the minimum inhibitory concentration (MIC) in assay [1] is at most 0.06 µg/mL; in [7], at most 0.06 µg/mL; in assay [8], 0.06 µg/mL (≈ 0.2 µM). Also, the MIC50 in [1] was at most 0.06 µg/mL; in assay [2], 0.06 µg/mL (≈ 0.2 µM). For the same molecule, the figures for the MIC90 in assay [1] and in assay [2] were 0.25 µg/mL (≈ 0.835 µM) and at most 0.06 µg/mL, respectively. Besides, the Activity entry in assay [3], in assay [4], in [5], in [6], in assay [9] and in assay [10] was “<=4 ug ml-1” throughout. Further, the Activity entry in assay [11] and in assay [12] was “<=4 ug ml-1” throughout.
On to `Cc1ncc([N+](=O)[O-])n1CCO` [METRONIDAZOLE], for which the MIC in [1] is 1 µg/mL (≈ 5.84 µM); in [2] it was 1 µg/mL (≈ 5.84 µM); in assay [7] it was 1 µg/mL (≈ 5.84 µM); in assay [8], 2 µg/mL (≈ 11.7 µM). Besides, the MIC50 in assay [1] is 4 µg/mL (≈ 23.4 µM); in assay [2], 2 µg/mL (≈ 11.7 µM). Moreover, the MIC90 in assay [1] and in [2] was 8 µg/mL (≈ 46.7 µM) in each case. Further, the Activity entry in assay [3] is on record as “<=8 ug ml-1”; in [4], “<=8 ug ml-1”; in [5], “<=2 ug ml-1”; in assay [6], “<=2 ug ml-1”; in assay [9], “<=8 ug ml-1”; in assay [10] it was “<=8 ug ml-1”. Also, the Activity entry in [11] and in assay [12] was “<=2 ug ml-1” in each case.
Turning to `CCN1CCN(C(=O)N[C@@H](C(=O)N[C@@H]2C(=O)N3[C@@H]2SC(C)(C)[C@@H]3C(=O)O)c2ccccc2)C(=O)C1=O` [PIPERACILLIN], the MIC in assay [1] was at most 0.125 µg/mL; in [7], 0.125 µg/mL (≈ 0.242 µM); in assay [8], 0.125 µg/mL (≈ 0.242 µM). In addition, the MIC50 was found to be 1 µg/mL (≈ 1.93 µM) in assay [1] and 0.125 µg/mL (≈ 0.242 µM) in [2]. For the same molecule, the MIC90 in assay [1] came to 16 µg/mL (≈ 30.9 µM); in assay [2], 1 µg/mL (≈ 1.93 µM). For the same molecule, the Activity entry in assay [3] is on record as “<=32 ug ml-1”; in assay [4], “<=32 ug ml-1”; in assay [5] it was “<=8 ug ml-1”; in assay [6], “<=8 ug ml-1”; in [9], “<=32 ug ml-1”; in assay [10] it was “<=32 ug ml-1”. In addition, the Activity entry in [11] and in assay [12] was “<=8 ug ml-1” in each case.
For the molecule `CC1(C)S[C@@H]2[C@H](NC(=O)[C@H](C(=O)O)c3ccsc3)C(=O)N2[C@H]1C(=O)O` [TICARCILLIN], the MIC in assay [1] is at most 0.06 µg/mL; in assay [2], at most 0.06 µg/mL; in assay [7], at most 0.06 µg/mL; in assay [8], 0.25 µg/mL (≈ 0.65 µM). The MIC50 in assay [1] was 0.25 µg/mL (≈ 0.65 µM); in assay [2], at most 0.06 µg/mL. Moreover, the results for the MIC90 in [1] and in assay [2] were 2 µg/mL (≈ 5.2 µM) and 0.5 µg/mL (≈ 1.3 µM), respectively. Also, the Activity entry is recorded as “<=32 ug ml-1” in assay [3]; “<=32 ug ml-1” in assay [4]; “<=16 ug ml-1” in [5]; “<=16 ug ml-1” in assay [6]; “<=32 ug ml-1” in [9]; “<=32 ug ml-1” in assay [10]. In addition, the Activity result in [11] and in [12] was “<=16 ug ml-1” in each case.
